Measurements taken from US12005107B2, “Compositions comprising recombinant Bacillus cells and a fungicide” (priority 2014, dated 2024).

System: Maize
Experiment: Plant growth promotion, maize whole plant biomass after drench of growing media
Format: in vivo

## trifloxystrobin
Drench at planting, after 14 days
  Efficacy % (additional % of plant weight compared with untreated control, actual effect observed): 1%
Drench at planting, after 14 days, relative to UTC
  Found % (plant weight, 100% = untreated control): 101%
Growing media drenched at planting, measured after 14 days, trifloxystrobin 0.024 mg/pot, BEE 7.85 × 10^8 CFU/pot
  Whole Plant Biomass: 2.69 g
